# Test results taken from publication PMC9122944, “Structural insights into the activation of somatostatin receptor 2 by cyclic SST analogues” (Cell Discovery, 2022).
# Like-named read-outs stand apart in the source and are kept apart here.
# Assays:
# SSTR2 (wild-type) = target: T1, SSTR2 (wild-type) (Homo sapiens, UniProt P30874); experiment: Intracellular Ca2+ mobilization signaling assay, wild-type SSTR2; assay type: cell-based
# T1 construct: Flag; expressed in transfected cells; host or cells: 293 T cells (pcDNA3.1, co-transfected with Gqi9)
# T1 sequence (P30874 whole entry): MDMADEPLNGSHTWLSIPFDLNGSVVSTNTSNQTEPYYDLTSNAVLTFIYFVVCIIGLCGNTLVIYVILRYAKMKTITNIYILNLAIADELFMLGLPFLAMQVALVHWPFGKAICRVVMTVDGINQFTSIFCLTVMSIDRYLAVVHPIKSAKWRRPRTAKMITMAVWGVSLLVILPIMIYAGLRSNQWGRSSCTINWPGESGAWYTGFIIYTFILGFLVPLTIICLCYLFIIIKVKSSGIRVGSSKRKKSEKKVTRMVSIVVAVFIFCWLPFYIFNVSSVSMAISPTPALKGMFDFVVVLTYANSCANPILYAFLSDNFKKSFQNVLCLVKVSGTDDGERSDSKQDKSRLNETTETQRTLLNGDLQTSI
# Method: (§1) SSTR2 (wild-type or mutant) and Gqi9 cloned in pcDNA3.1 vector were co-transfected into 293 T cells at a ratio of 2:1 with Lipo3000. After 24 h, the cells were plated in poly-D-lysine-coated 96-well plates. After cells were washed with calcium buffer (HBSS buffer supplemented with 0.1% BSA, 2.5 mM probenecid, pH 7.4), Fluo4 AM was added and incubated for 50 min in a 37 °C incubator. After washing with calcium buffer, 50 μL calcium buffer was added to each well. Fluorescence intensities were recorded simultaneously from all the wells by a FLIPR. Plates were illuminated at 488 nm and fluorescence emission was recorded at 540 nm. The fluorescence intensity was measured at 1-s intervals for 410 s. This procedure was followed by the addition of 50 μL agonist. Data were normalized to the baseline response of the ligand. Data were analyzed using nonlinear regression in GraphPad Prism software 9.0.
# SSTR2 Q102A = target: T2, SSTR2 Q102A (Homo sapiens, UniProt P30874, Q102A); experiment: Intracellular Ca2+ mobilization signaling assay, SSTR2 Q102A mutant; assay type: cell-based; settings: for Emax: read-out: Ca2+ Emax
# T2 construct: Flag; expressed in transfected cells; host or cells: 293 T cells (pcDNA3.1, co-transfected with Gqi9)
# T2 sequence (P30874 whole entry Q102A): as the sequence (P30874 whole entry) above, with Q102A counted along it
# Method: as §1
# SSTR2 D122A = target: T3, SSTR2 D122A (Homo sapiens, UniProt P30874, D122A); experiment: Intracellular Ca2+ mobilization signaling assay, SSTR2 D122A mutant; assay type: cell-based; settings: read-out: Ca2+ Emax
# T3 construct: Flag; expressed in transfected cells; host or cells: 293 T cells (pcDNA3.1, co-transfected with Gqi9)
# T3 sequence (P30874 whole entry D122A): as the sequence (P30874 whole entry) above, with D122A counted along it
# Method: as §1
# SSTR2-Q126A = target: T4, SSTR2-Q126A (Homo sapiens, UniProt P30874, Q126A); experiment: Intracellular Ca2+ mobilization signaling assay, SSTR2 Q126A mutant; assay type: cell-based; settings: read-out: Ca2+ Emax
# T4 construct: Flag; expressed in transfected cells; host or cells: 293 T cells (pcDNA3.1, co-transfected with Gqi9)
# T4 sequence (P30874 whole entry Q126A): as the sequence (P30874 whole entry) above, with Q126A counted along it
# Method: as §1
# SSTR2 F272A = target: T5, SSTR2 F272A (Homo sapiens, UniProt P30874, F272A); experiment: Intracellular Ca2+ mobilization signaling assay, SSTR2 F272A mutant; assay type: cell-based; settings: percentage of wild-type SSTR2 response
# T5 construct: Flag; expressed in transfected cells; host or cells: 293 T cells (pcDNA3.1, co-transfected with Gqi9)
# T5 sequence (P30874 whole entry F272A): as the sequence (P30874 whole entry) above, with F272A counted along it
# Method: as §1
# SSTR2 F208A = target: T6, SSTR2 F208A (Homo sapiens, UniProt P30874, F208A); experiment: Intracellular Ca2+ mobilization signaling assay, SSTR2 F208A mutant; assay type: cell-based; settings: read-out: Ca2+ Emax
# T6 construct: Flag; expressed in transfected cells; host or cells: 293 T cells (pcDNA3.1, co-transfected with Gqi9)
# T6 sequence (P30874 whole entry F208A): as the sequence (P30874 whole entry) above, with F208A counted along it
# Method: as §1
# SSTR2 N276A = target: T7, SSTR2 N276A (Homo sapiens, UniProt P30874, N276A); experiment: Intracellular Ca2+ mobilization signaling assay, SSTR2 N276A mutant; assay type: cell-based; settings: read-out: Ca2+ Emax
# T7 construct: Flag; expressed in transfected cells; host or cells: 293 T cells (pcDNA3.1, co-transfected with Gqi9)
# T7 sequence (P30874 whole entry N276A): as the sequence (P30874 whole entry) above, with N276A counted along it
# Method: as §1
# SSTR2 Y302A = target: T8, SSTR2 Y302A (Homo sapiens, UniProt P30874, Y302A); experiment: Intracellular Ca2+ mobilization signaling assay, SSTR2 Y302A mutant; assay type: cell-based; settings: read-out: Ca2+ Emax
# T8 construct: Flag; expressed in transfected cells; host or cells: 293 T cells (pcDNA3.1, co-transfected with Gqi9)
# T8 sequence (P30874 whole entry Y302A): as the sequence (P30874 whole entry) above, with Y302A counted along it
# Method: as §1
# SSTR2-Q102S = target: T9, SSTR2-Q102S (Homo sapiens, UniProt P30874, Q102S); experiment: Intracellular Ca2+ mobilization signaling assay, SSTR2 Q102S mutant; assay type: cell-based; settings: for Emax: read-out: Ca2+ Emax
# T9 construct: Flag; expressed in transfected cells; host or cells: 293 T cells (pcDNA3.1, co-transfected with Gqi9)
# T9 sequence (P30874 whole entry Q102S): as the sequence (P30874 whole entry) above, with Q102S counted along it
# Method: as §1
# SSTR2 F294S = target: T10, SSTR2 F294S (Homo sapiens, UniProt P30874, F294S); experiment: Intracellular Ca2+ mobilization signaling assay, SSTR2 F294S mutant; assay type: cell-based; settings: read-out: Ca2+ Emax
# T10 construct: Flag; expressed in transfected cells; host or cells: 293 T cells (pcDNA3.1, co-transfected with Gqi9)
# T10 sequence (P30874 whole entry F294S): as the sequence (P30874 whole entry) above, with F294S counted along it
# Method: as §1
# [1] = cited from earlier work
# SSTR2(1-359)-Largebit = target: T11, SSTR2(1-359)-Largebit (Homo sapiens, UniProt P30874); experiment: Intracellular Ca2+ mobilization signaling assay, SSTR2(1-359)-Largebit construct; assay type: cell-based; settings: maximal response as percentage of wild-type SSTR2 response
# T11 construct: SSTR2(1-359)-; Flag; expressed in transfected cells; host or cells: 293 T cells (pcDNA3.1, co-transfected with Gqi9)
# T11 sequence (P30874 1-359): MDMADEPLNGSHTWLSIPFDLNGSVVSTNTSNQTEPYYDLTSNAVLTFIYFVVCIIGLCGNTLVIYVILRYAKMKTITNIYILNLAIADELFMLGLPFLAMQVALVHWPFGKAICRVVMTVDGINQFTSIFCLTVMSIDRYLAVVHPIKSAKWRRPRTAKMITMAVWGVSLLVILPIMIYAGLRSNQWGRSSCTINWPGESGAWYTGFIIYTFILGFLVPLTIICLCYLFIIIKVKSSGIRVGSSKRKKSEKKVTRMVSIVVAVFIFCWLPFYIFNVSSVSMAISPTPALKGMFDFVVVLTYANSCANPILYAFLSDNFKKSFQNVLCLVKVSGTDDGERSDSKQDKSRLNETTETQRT
# Method: as §1
# SSTR1 = SSTR1 (all five SSTRs); cited from earlier work
# SSTR2 = SSTR2 (all five SSTRs); cited from earlier work
# SSTR3 = SSTR3 (all five SSTRs); cited from earlier work
# SSTR4 = SSTR4 (all five SSTRs); cited from earlier work
# SSTR5 = SSTR5 (all five SSTRs); cited from earlier work
# SSTR2-Q126A (human) = SSTR2-Q126A (human) (UniProt P30874)
# Sequence of SSTR2-Q126A (human) (P30874 whole entry Q126A): as the sequence (P30874 whole entry) above, with Q126A counted along it
# [2] = target: wild-type SSTR2 (pcDNA3.1, functional assays) (human) (UniProt P30874)
# Sequence of wild-type SSTR2 (pcDNA3.1, functional assays) (human) (P30874 whole entry): as the sequence (P30874 whole entry) above
# [3] = target: SSTR2-Q102^2.63 substituted with alanine (human) (UniProt P30874)
# Sequence of SSTR2-Q102^2.63 substituted with alanine (human) (P30874 whole entry Q102A): as the sequence (P30874 whole entry) above, with Q102A counted along it
molecule,measurement,setting,value
CC(C)[C@@H]1NC(=O)[C@H](CCCCN)NC(=O)[C@@H](Cc2c[nH]c3ccccc23)NC(=O)[C@H](Cc2ccc(O)cc2)NC(=O)[C@@H](NC(=O)[C@H](N)Cc2ccc3ccccc3c2)CSSC[C@@H](C(=O)N[C@H](C(N)=O)[C@@H](C)O)NC1=O [Lanreotide],EC50,SSTR2 (wild-type),50.1 nM
same,EC50,SSTR2 Q102A,398 nM
same,Emax,SSTR2 Q102A,56.1 ± 4.2%
same,Emax,SSTR2 D122A,11.7 ± 4.3%
same,Emax,SSTR2-Q126A,25.2 ± 1.8%
same,Emax,SSTR2 F272A,12.4 ± 1.1%
same,Emax,SSTR2 F208A,27.9 ± 4%
same,Emax,SSTR2 N276A,13.8 ± 1.6%
same,Emax,SSTR2 Y302A,14 ± 2.2%
same,EC50,SSTR2-Q102S,501 nM
same,Effect of mutation on EC50,SSTR2-Q102S; SSTR2-Q102S versus wild-type SSTR2,highly attenuated EC50
same,Emax,SSTR2-Q102S,54.8 ± 1.6%
same,Emax,SSTR2 F294S,11.4 ± 0.8%
same,half-life,[1],1 h
C[C@@H](O)[C@@H]1NC(=O)[C@H](CCCCN)NC(=O)[C@@H](Cc2c[nH]c3ccccc23)NC(=O)[C@H](Cc2ccccc2)NC(=O)[C@@H](NC(=O)[C@H](N)Cc2ccccc2)CSSC[C@@H](C(=O)N[C@H](CO)[C@@H](C)O)NC1=O [Octreotide],Emax,SSTR2(1-359)-Largebit,82.6 ± 7.4%
same,Emax,"SSTR2 Q102A; Q102A mutant, percentage of wild-type SSTR2 response",104 ± 12.1%
same,Emax,"SSTR2 D122A; D122A mutant, percentage of wild-type SSTR2 response",5.6 ± 0.5%
same,Emax,"SSTR2-Q126A; Q126A mutant, percentage of wild-type SSTR2 response",83.5 ± 5.9%
same,Emax,"SSTR2 F208A; F208A mutant, percentage of wild-type SSTR2 response",98.7 ± 6.9%
same,Emax,"SSTR2 N276A; N276A mutant, percentage of wild-type SSTR2 response",22.3 ± 5.4%
same,Emax,"SSTR2 Y302A; Y302A mutant, percentage of wild-type SSTR2 response",13.7 ± 3.2%
same,Emax,"SSTR2-Q102S; Q102S mutant, percentage of wild-type SSTR2 response",91.9 ± 6.5%
same,half-life,[1],2 h
C[C@H](N)C(=O)NCC(=O)N[C@H]1CSSC[C@@H](C(=O)O)NC(=O)[C@H](CO)NC(=O)[C@H]([C@@H](C)O)NC(=O)[C@H](Cc2ccccc2)NC(=O)[C@H]([C@@H](C)O)NC(=O)[C@H](CCCCN)NC(=O)[C@H](Cc2c[nH]c3ccccc23)NC(=O)[C@H](Cc2ccccc2)NC(=O)[C@H](Cc2ccccc2)NC(=O)[C@H](CC(N)=O)NC(=O)[C@H](CCCCN)NC1=O [SST14],binding affinity,SSTR1,high binding affinity
same,binding affinity,SSTR2,high binding affinity
same,binding affinity,SSTR3,high binding affinity
same,binding affinity,SSTR4,high binding affinity
same,binding affinity,SSTR5,high binding affinity
octreotide (peptide),EC50 of Ca^2+ mobilization (293 T cells with Gqi9),SSTR2-Q126A (human),100 nM
same,EC50 of Ca^2+ mobilization (293 T cells with Gqi9),[2],20 nM
same,EC50 of Ca^2+ mobilization (293 T cells with Gqi9),[3],1.3 µM
